Test results reported in patent US20160264523A1, “CONJUGATE COMPRISING FOLIC ACID AND INDOLE-3-CARBINOL FOR MEDICAL USE” (Dom Terry International S.R.L., priority 2013, published 2016).

Key:
[1] = ABTS cationic free radical discoloration assay (antioxidant activity); design: key: TEAC: mM Trolox equivalent to 1 mM tested compound; settings: TEAC = concentration of Trolox having the same antioxidant ability of the tested compound at 1 mM
Excerpt: The cationic free radical ABTS+° discoloration assay assesses the scavenging ability of an antioxidant against a preformed cationic radical (ABTS^+°) compared to Trolox, a hydrosoluble analogue of Vitamin E.

[2] = tested on: HT-29 (human colon adenocarcinoma); assay: Cytotoxic activity, cell growth inhibition; assay type: cell-based; settings: HT-29 cells; n=4; read-out: IC50, concentration that inhibits the 50% cell growth compared to control cultures
Method: (§1) The studies of cytotoxic activity were carried out on three human cell lines: HT-29 (human colon adenocarcinoma), MCF-7 (human breast adenocarcinoma), and KB-3-1 (human oropharyngeal carcinoma), which cells are characterized by an overexpression of folic acid (FR+) receptors. […], conjugates free from folic acid (PEG-[…]), and the folate conjugates F-PEG-I3C, F-PEG-AD-(I3C)2, and F-PEG-βGlu-(I3C)2 were tested.

[3] = tested on: KB-3-1 (human oropharyngeal carcinoma); assay: Cytotoxic activity, cell growth inhibition; assay type: cell-based; settings: KB-3-1 cells (FR+); n=4; read-out: IC50, concentration that inhibits the 50% cell growth compared to control cultures
Method: as §1

[4] = tested on: MCF-7 (human breast adenocarcinoma); assay: Cytotoxic activity, cell growth inhibition; assay type: cell-based; settings: MCF-7 cells; n=4; read-out: IC50, concentration that inhibits the 50% cell growth compared to control cultures
Method: as §1

[5] = tested on: inducible nitric oxide synthetase (iNos) activity in J774A.1 macrophage cells stimulated by LPS; assay: Anti-inflammatory activity: production of nitrites and release of NO; assay type: cell-based; settings: 24 h, J774A.1 macrophages stimulated with LPS of E. coli, n=5
Method: I3C, conjugate derivatives free from folic acid (PEG-I3C), and folate conjugates F-PEG-I3C, F-PEG-AD-(I3C)2, and F-PEG-βGlu-(I3C)2 were tested for their anti-inflammatory activity against the inducible nitric oxide synthetase (iNos) activity in J774A.1 macrophage cells stimulated by LPS and assessing the production of nitrites and the release of NO.
The PEG-I3C conjugates, free from folic acid, show a lower activity, thus indicating a real targeting effect of the folic acid molecule on the activated macrophage cells. […] The data are expressed as the inhibition percentage±s.e.m. vs the production of nitrites during 24 h by J774A.1 macrophage cells treated with LPS alone.

[6] = tested on: collagen-induced platelet aggregation; assay: Platelet antiaggregating activity on platelet-enriched plasma; assay type: cell-based
Method: The platelet anti-aggregating effect induced by a series of mediators was tested on platelet-enriched plasma samples.

[7] = tested on: tumor cells that are positive to the estrogen receptor; settings: a number of in vitro and in vivo studies (background); cited from earlier work

O=C(O)c1ccc(O)c(O)c1 [3,4-Dihydroxybenzoic acid]
ABTS assay (TEAC) [1]: 4.6 ± 0.18

O=c1cc(-c2ccc(O)cc2)oc2cc(O)cc(O)c12 [Apigenin]
ABTS assay (TEAC) [1]: 0.2 ± 0.01

O=C(O)/C=C/c1ccc(O)c(O)c1 [Caffeic acid]
ABTS assay (TEAC) [1]: 5.8 ± 0.12

OCc1c[nH]c2ccccc12 [Compound I3C, Indole-3-carbinol]
IC50 [2]: 45.1 ± 1.7 µM
IC50 [3]: 93 ± 2.1 µM
IC50 [4]: 30 ± 0.7 µM
Nitrites release inhibition (% vs LPS) ([5]; 1 μg/mL): 10.0 ± 1.1%
Nitrites release inhibition (% vs LPS) ([5]; 10 μg/mL): 20.0 ± 0.9 %
Nitrites release inhibition (% vs LPS) ([5]; 100 μg/mL): 70.1 ± 1.2 %
platelet aggregation inhibition ([6]; 3 μM): 70%
platelet aggregation inhibition ([6]; 6 μM): 73%
platelet aggregation inhibition ([6]; 12 μM): 78%
platelet aggregation inhibition ([6]; 25 μM): 79%
ABTS assay (TEAC) [1]: 3.8 ± 0.12
inhibition of the development of tumor cells positive to the estrogen receptor [7]: up to 90%

COc1ccc([C@@H]2CC(=O)c3c(O)cc(O[C@@H]4O[C@H](CO[C@@H]5O[C@@H](C)[C@H](O)[C@@H](O)[C@H]5O)[C@@H](O)[C@H](O)[C@H]4O)cc3O2)cc1O [Hesperidin]
ABTS assay (TEAC) [1]: 0.5 ± 0.09

O=c1cc(-c2ccc(O)c(O)c2)oc2cc(O)cc(O)c12 [Luteolin]
ABTS assay (TEAC) [1]: 2.8 ± 0.09

O=C1C[C@@H](c2ccc(O)cc2)Oc2cc(O)cc(O)c21 [Naringenin]
ABTS assay (TEAC) [1]: 1.4 ± 0.03

C[C@@H]1O[C@@H](O[C@H]2[C@H](Oc3cc(O)c4c(c3)O[C@H](c3ccc(O)cc3)CC4=O)O[C@H](CO)[C@@H](O)[C@@H]2O)[C@H](O)[C@H](O)[C@H]1O [Naringin]
ABTS assay (TEAC) [1]: 0.5 ± 0.01

C[C@@H]1O[C@@H](O[C@@H]2[C@@H](O)[C@H](OCCc3ccc(O)c(O)c3)O[C@H](CO)[C@H]2OC(=O)/C=C/c2ccc(O)c(O)c2)[C@H](O)[C@H](O)[C@H]1O [Verbascoside]
ABTS assay (TEAC) [1]: 5.3 ± 0.22

Indole-3-Carbinol-PEG600-Indole-3-Carbinol [I3C-PEG600-I3C]
Nitrites release inhibition (% vs LPS) ([5]; 1 μg/mL): 32.2 ± 1.4 %
Nitrites release inhibition (% vs LPS) ([5]; 10 μg/mL): 45.7 ± 1.7 %
Nitrites release inhibition (% vs LPS) ([5]; 100 μg/mL): 84.3 ± 3.8 %
ABTS assay (TEAC) [1]: 5.8 ± 0.41

PEG550-Indole-3-Carbinol [PEG550-I3C]
Nitrites release inhibition (% vs LPS) ([5]; 1 μg/mL): 12.5 ± 0.8%
Nitrites release inhibition (% vs LPS) ([5]; 10 μg/mL): 34.1 ± 1.2 %
Nitrites release inhibition (% vs LPS) ([5]; 100 μg/mL): 72.5 ± 2.4 %
ABTS assay (TEAC) [1]: 4.2 ± 0.26

Tocopherol
ABTS assay (TEAC) [1]: 2.1 ± 0.07
